Reference: US20260265684A1, “EIMERIA VACCINE” (priority 2024, published 2026)

What was measured:
E. brunetti oocysts = assay: Sporulation in different media: sporulation and post-sporulation oocyst count (Example 1); type: cell-based; details: for relative difference in oocyst counts compared to group 1 (percentage difference), R1: replicate R1, post sporulation; for relative difference in oocyst counts compared to group 1 (percentage difference), R3: replicate R3, post sporulation
E. necatrix oocysts = assay: as above; type: cell-based; details: for relative difference in oocyst counts compared to group 1 (percentage difference), R1: replicate R1, post sporulation; for relative difference in oocyst counts compared to group 1 (percentage difference), R3: replicate R3, post sporulation
E. mitis oocysts [1] = type: cell-based; details: for relative difference in oocyst counts compared to group 1 (percentage difference), R1: replicate R1, post sporulation; for relative difference in oocyst counts compared to group 1 (percentage difference), R3: replicate R3, post sporulation
E. tenella oocysts = type: cell-based; details: for relative difference in oocyst counts compared to group 1 (percentage difference), R1: replicate R1, post sporulation; for relative difference in oocyst counts compared to group 1 (percentage difference), R3: replicate R3, post sporulation
E. acervulina oocysts = type: cell-based; details: for relative difference in oocyst counts compared to group 1 (percentage difference), R1: replicate R1, post sporulation; for relative difference in oocyst counts compared to group 1 (percentage difference), R3: replicate R3, post sporulation
E. maxima oocysts [2] = type: cell-based; details: for relative difference in oocyst counts compared to group 1 (percentage difference), R1: replicate R1, post sporulation; for relative difference in oocyst counts compared to group 1 (percentage difference), R3: replicate R3, post sporulation
[3] = test system: Eimeria oocysts (E. acervulina, E. brunetti, E. maxima, E. mitis, E. necatrix and E. tenella); assay: Sporulation of Eimeria oocysts in different media, all species (Example 1); type: cell-based; details: for Average sporulation % across all species: 48 hours at 27° C., 150 rpm, three replicates, six species
[4] = test system: microorganisms other than the Eimeria; type: cell-based; details: replicate sterility averaged across the 6 species; FIG. 13
[5] = test system: Candida albicans ATCC 10231; details: 27° C., FIG. 18A
Method: (§1) Each organism was exposed to each chemical mimicking the duration and conditions they would be used with for sporulation or sterilisation.
(§2) Organism suspensions were prepared by sub-culturing onto an appropriate growth plate and incubating under standard conditions. The growth was harvested and suspended in appropriate media. The starting titre for most organisms once inoculated into the test media was approximately ≤10^6 CFU/mL.
(§3) 0.1 mL of the harvested bacterial or fungal suspension was added to 9.9 mL of the solution being tested in a sterile glass vial (McCartney container). The inoculated solutions were incubated at 27° C. Zero hours samples were done with sterile water and not the solution being tested to determine a baseline for log reduction calculations. At the appropriate time point, 1 mL of sample was combined with 9 mL of sodium thiosulfate neutralizer (the 10:1 dilution). Serial dilutions in Peptone water (PEP) from 10^−2 to 10^−6 were plated out onto either TSA (bacterial) or SDA (fungal) plates. The 10^−1 dilution in neutraliser was also plated. Plates were incubated according to the organisms' requirements and the number of colonies counted at the end of the incubation period.

[6] = test system: Staphylococcus aureus ATCC 6538; details: after the 48 hours, 27° C.; FIG. 18A
Method: as §1, §2, §3

[7] = test system: Pseudomonas aeruginosa ATCC 9027; details: 27° C.; FIG. 18A
Method: as §1, §2, §3

[8] = test system: microorganisms other than the Eimeria; type: cell-based; details: across 1%, 3% and 5% solids and all species
Eimeria oocysts = assay: Sporulation at variable solids content (Example 2); type: cell-based; details: 1%, 3% and 5% solids
E. maxima oocysts [9] = assay: Sporulation in 2% Proxitane with detergents, initial experiments (Example 4); type: cell-based
Method: (§4) The 2% Proxitane (~1000 ppm peracetic acid) sporulation media was prepared as described in Example 1. Detergents were added to the 2% Proxitane (~1000 ppm peracetic acid) solution at two concentrations: 0.05% solution and 0.5% solution. A 30% solution of Sarkosyl in 2% Proxitane (~1000 ppm peracetic acid) was prepared first before diluting to the desired concentration. Docusate dissolved in water with heat (up 90° C.) before adding the Proxitane.
(§5) Oocysts were sporulated in 15 or 50 mL tubes with at least 80% headspace (i.e. 10 mL liquid in 50 mL tube max). The amount of solids (unsporulated oocysts+debris) in this experiments was set to 2%, i.e. a solids ratio of 1:49.
(§6) All samples were incubated at 27° C. and about 150 rpm in the shaking incubator for 48 hours. Following sporulation, samples were either stored at 4-8° C. or evaluated immediately.
(§7) Sporulation level and oocyst health was evaluated as described in Example 1.

E. mitis oocysts [10] = assay: Sporulation in 2% Proxitane with anionic detergents, follow up trial (Example 4); type: cell-based; details: detergent 0.05% in 2% Proxitane; FIG. 19
Method: as §4, §5, §6, §7

| Compound | relative difference in oocyst counts compared to group 1 (percentage difference), R1 (E. brunetti oocysts) [%] | relative difference in oocyst counts compared to group 1 (percentage difference), R3 (E. brunetti oocysts) [%] | relative difference in oocyst counts compared to group 1 (percentage difference), R1 (E. necatrix oocysts) [%] | relative difference in oocyst counts compared to group 1 (percentage difference), R3 (E. necatrix oocysts) [%] | relative difference in oocyst counts compared to group 1 (percentage difference), R1 (E. mitis oocysts [1]) [%] | relative difference in oocyst counts compared to group 1 (percentage difference), R3 (E. mitis oocysts [1]) [%] | relative difference in oocyst counts compared to group 1 (percentage difference), R1 (E. tenella oocysts) [%] | relative difference in oocyst counts compared to group 1 (percentage difference), R3 (E. tenella oocysts) [%] | relative difference in oocyst counts compared to group 1 (percentage difference), R1 (E. acervulina oocysts) [%] | relative difference in oocyst counts compared to group 1 (percentage difference), R3 (E. acervulina oocysts) [%] | relative difference in oocyst counts compared to group 1 (percentage difference), R1 (E. maxima oocysts [2]) [%] | relative difference in oocyst counts compared to group 1 (percentage difference), R3 (E. maxima oocysts [2]) [%] | Average sporulation % across all species [3] [%] | sterility [4] | other results |
| --- | --- | --- | --- | --- | --- | --- | --- | --- | --- | --- | --- | --- | --- | --- | --- |
| O=CCCCC=O [0.2% glutaraldehyde, glutaraldehyde] | 3 | 91 | 7 | −61.49 | 8.68 | 1 | 3.12 | 30.08 | 1.31 | −1 | 3 | −3 | 78 | – | – |
| OO [0.5% hydrogen peroxide, hydrogen peroxide] | −13 | 92 | 25 | −15.15 | 29.90 | 17 | 17.92 | 26.75 | 11.16 | −298 | 5 | −13 | 81 | 80% | reduction of titre before going back up at the last time point [5]: 4.32 logs; viability after treatment ([5]; after the 48 hours): still viable; viability after treatment [6]: still viable; time to inactivation [7]: within the first hour; samples failing sterility (fail rate) [8]: 21%; sporulation compared with dichromate (in words) (Eimeria oocysts): good sporulation compared to dichromate except with 5% solids; sporulating oocysts compared with control group 1 ([3]; averaged sporulation from 3 replicates, across all the species tested (FIGS. 7-12)): comparable to or better than control group 1 |
| O=S(=O)([N-]Cl)c1ccccc1.[Na+] [1% chloramine B, chloramine B] | −7 | 91 | 24 | −27.13 | 12.16 | 8 | −1.16 | 40.83 | 9.43 | −137 | −4 | −4 | 81 | – | – |
| [K+].[K+].[O]=[Cr](=[O])([O-])[O][Cr](=[O])(=[O])[O-] [2% potassium dichromate, potassium dichromate, reference compound] | – | – | – | – | – | – | – | – | – | – | – | – | – | failed to achieve sterility | sterility outcome (in words) [8]: failed to sterilise the material |
| CCCCCCCCCCCCOS(=O)(=O)[O-].[Na+] [SDS] | – | – | – | – | – | – | – | – | – | – | – | – | – | – | percent sporulation (E. maxima oocysts [9]; detergent 0.5% in 2% Proxitane, 2% solids, 48 hours): 40%; sticking of debris and oocysts (E. maxima oocysts [9]; detergent in 2% Proxitane, data not shown): reduce sticking; oocyst damage (E. maxima oocysts [9]; upon prolonged storage): cause damage to the oocyst wall |
| CCCCCCCCCCCC(=O)N(C)CC(=O)[O-].[Na+] [sarkosyl, Sarkosyl] | – | – | – | – | – | – | – | – | – | – | – | – | – | – | sticking of debris to oocyst walls (E. mitis oocysts [10]): sticking of debris to oocyst walls was found |
